The term IC50 denotes the midpoint of a concentration-inhibition curve.

Here are results for 15 compounds from patent publication US10005768B2, “Carboxamide derivatives and use thereof” (Purdue Pharma L.P., priority 2013, dated 2018).

Structures are written as SMILES. Bounds are passed on as bounds.

human Nav1.7, sequence (Q15858 other isoform, or with tags, fused parts or gaps): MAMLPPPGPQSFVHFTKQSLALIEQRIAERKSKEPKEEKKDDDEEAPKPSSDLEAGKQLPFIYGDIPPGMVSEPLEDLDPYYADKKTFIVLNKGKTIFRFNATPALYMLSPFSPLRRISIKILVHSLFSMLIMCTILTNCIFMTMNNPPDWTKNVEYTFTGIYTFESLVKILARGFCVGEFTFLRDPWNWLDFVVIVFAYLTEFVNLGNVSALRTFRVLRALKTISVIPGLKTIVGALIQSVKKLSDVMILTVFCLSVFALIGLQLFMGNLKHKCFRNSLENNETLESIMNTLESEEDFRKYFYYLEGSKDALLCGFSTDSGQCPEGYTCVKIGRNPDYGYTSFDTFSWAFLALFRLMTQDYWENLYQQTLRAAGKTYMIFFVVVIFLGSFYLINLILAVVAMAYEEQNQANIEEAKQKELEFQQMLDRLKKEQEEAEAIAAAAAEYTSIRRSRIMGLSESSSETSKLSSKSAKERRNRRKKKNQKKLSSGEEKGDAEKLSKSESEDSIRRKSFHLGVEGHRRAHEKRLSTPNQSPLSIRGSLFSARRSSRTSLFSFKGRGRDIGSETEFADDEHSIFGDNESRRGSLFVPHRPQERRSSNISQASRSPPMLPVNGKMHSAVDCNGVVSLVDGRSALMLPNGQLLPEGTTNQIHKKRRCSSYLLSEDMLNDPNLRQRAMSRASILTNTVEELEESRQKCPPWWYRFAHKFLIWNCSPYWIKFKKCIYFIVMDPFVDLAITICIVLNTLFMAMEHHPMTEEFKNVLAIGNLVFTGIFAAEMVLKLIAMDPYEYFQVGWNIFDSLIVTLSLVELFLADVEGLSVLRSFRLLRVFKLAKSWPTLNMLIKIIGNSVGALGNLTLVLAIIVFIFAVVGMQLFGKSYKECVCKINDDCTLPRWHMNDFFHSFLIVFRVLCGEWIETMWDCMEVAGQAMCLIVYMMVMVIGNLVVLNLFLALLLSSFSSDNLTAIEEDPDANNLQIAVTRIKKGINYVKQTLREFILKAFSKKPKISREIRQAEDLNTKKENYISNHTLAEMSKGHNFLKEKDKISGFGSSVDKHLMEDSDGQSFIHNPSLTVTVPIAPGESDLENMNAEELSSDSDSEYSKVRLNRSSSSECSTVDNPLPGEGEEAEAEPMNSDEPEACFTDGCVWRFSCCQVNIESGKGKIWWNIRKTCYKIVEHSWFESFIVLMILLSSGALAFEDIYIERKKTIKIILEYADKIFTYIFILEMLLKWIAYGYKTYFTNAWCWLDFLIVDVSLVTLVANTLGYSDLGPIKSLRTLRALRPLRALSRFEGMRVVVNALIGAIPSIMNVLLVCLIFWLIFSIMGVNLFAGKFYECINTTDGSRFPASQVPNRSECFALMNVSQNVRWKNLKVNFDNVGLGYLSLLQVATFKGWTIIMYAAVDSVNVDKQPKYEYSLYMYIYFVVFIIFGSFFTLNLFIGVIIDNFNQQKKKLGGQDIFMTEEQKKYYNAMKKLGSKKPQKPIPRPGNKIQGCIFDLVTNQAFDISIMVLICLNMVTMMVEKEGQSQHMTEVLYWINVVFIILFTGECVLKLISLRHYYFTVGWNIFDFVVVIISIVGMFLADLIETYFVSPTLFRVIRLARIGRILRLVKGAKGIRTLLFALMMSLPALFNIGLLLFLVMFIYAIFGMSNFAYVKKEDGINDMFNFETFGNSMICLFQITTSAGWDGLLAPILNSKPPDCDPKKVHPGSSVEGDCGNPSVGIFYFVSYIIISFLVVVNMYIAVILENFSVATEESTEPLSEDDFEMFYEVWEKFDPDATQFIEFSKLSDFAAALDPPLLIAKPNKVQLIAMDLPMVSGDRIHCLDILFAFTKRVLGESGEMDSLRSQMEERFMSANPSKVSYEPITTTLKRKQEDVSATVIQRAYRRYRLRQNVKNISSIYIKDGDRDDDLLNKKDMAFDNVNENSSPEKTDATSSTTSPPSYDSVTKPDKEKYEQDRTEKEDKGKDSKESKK

The assay has as its target human Nav1.7 (Homo sapiens (Human), UniProt Q15858). Nature of the assay: FLIPR sodium dye assay (CoroNa Green AM Na+ dye, primary fluorescence assay). The class given is cell-based. Conditions: recombinant Nav1.7/HEK293 cells. The method, then: In vitro assays were performed in a recombinant cell line expressing cDNA encoding the alpha subunit (Nav1.7, SCN9a, PN1, NE) of human Nav1.7 (Accession No. NM_002977). The cell line was provided by investigators at Yale University (Cummins et al, J. Neurosci. 18(23): 9607-9619 (1998)). For dominant selection of the Nav1.7-expressing clones, the expression plasmid co-expressed the neomycin resistance gene. The cell line was constructed in the human embryonic kidney cell line, HEK293, under the influence of the CMV […] promoter, and stable clones were selected using limiting dilution cloning and antibiotic selection using the neomycin analogue, G418. Recombinant beta and gamma subunits were not introduced into this cell line. Additional cell lines expressing recombinant Nav1.7 cloned from other species can also be used, alone or in combination with various beta subunits, gamma subunits or chaperones.
Unless otherwise noted, cell culture reagents were purchased from Mediatech of Herndon, Va. The recombinant Nav1.7/HEK293 cells were routinely cultured in growth medium consisting of Dulbecco's […] essential medium containing 10% fetal bovine serum (FBS, Hyclone, Thermo Fisher Scientific, Logan, Utah), 100 U/mL penicillin, 100 μg/mL streptomycin, 2-4 mM L-glutamine, and […] G418. For natural, non-recombinant cell lines, the selective antibiotic was omitted, and additional media formulations can be applied as needed.
The final buffer consisted of 20 mM Hepes, pH 7.3, 1.261 mM CaCl2, 0.493 mM MgCl2, 0.407 mM Mg(SO)4, 5.33 mM KCl, 0.441 mM KH2PO4, 137 mM NaCl, 0.336 mM Na2HPO4 and […] D-glucose (Hanks et al., Proc. Soc. Exp. Biol. Med. 71:196 (1949)), and the simple formulation was typically the basic buffer throughout the assay (i.e., all wash and addition steps).
The fluorescence indicator used in the primary fluorescence assay was the cell permeant version of CoroNa™ Green (Invitrogen, Molecular Probes, Eugene, Oreg.), a dye that emits light in the fluorescence range (Harootunian et al., J. Biol. Chem. 264(32):19458-19467 (1989)). The intensity of this emission, but not the wavelength range, is increased when the dye is exposed to Na^+ ions, which it can bind with partial selectivity. Cells expressing Nav1.7 or other sodium channels were loaded with the CoroNa™ Green dye immediately in advance of the fluorescence assay, and then, after agonist stimulation, the mobilization of Na^+ ions was detected as the Na^+ ions flowed from the extracellular fluid into the cytoplasm through the activated sodium channel pores. The dye was stored in the dark as a lyophilized powder, and then an aliquot was dissolved immediately before the cell loading procedure, according to the instructions of the manufacturer, to a stock concentration of 10 mM in DMSO. It was then diluted in the assay buffer to a 4× concentrated working solution, so that the final concentration of dye in the cell loading buffer was 5 μM.
In the fluorescence assays, two agonists were used in combination, namely 1) veratridine; and 2) the venom from the yellow scorpion, Leiurus quinquestriatus hebraeus. Veratridine is an alkaloid small molecule that facilitates the capture of channel openings by inhibiting inactivation, and the scorpion venom is a natural preparation that includes peptide toxins selective for different subsets of voltage-gated sodium channels. These scorpion toxins inhibit the fast inactivation of their cognate target channels. Stock solutions of the agonists were prepared to 40 mM in DMSO (veratridine) and 1 mg/mL in dH2O (scorpion venom), and then diluted to make a 4× or 2× stock (depending on the particular assay) in assay buffer, the final concentration being 100 μM (veratridine) and 10 μg/mL (scorpion venom). Both of the agonists were purchased from Sigma Aldrich, St. Louis, Mo.
Test compounds were dissolved in DMSO to yield 10 mM stock solutions. […]
Consider `NC(=O)c1cccc(-c2ccc(Oc3ccc(C(F)(F)F)cc3CNc3nccs3)cc2)n1` [compound 114, 6-(4-(2-((thiazol-2-ylamino)methyl)-4-(trifluoromethyl)phenoxy)phenyl) picolinamide], for which the concentration for half-maximal inhibition (IC50) turned out to be 2.01 ± 0.456 µM. As for `CCOCc1cc(-c2cccc(C(N)=O)n2)ccc1Oc1ccc(F)cc1` [compound 96, 6-(3-(ethoxymethyl)-4-(4-fluorophenoxy)phenyl) picolinamide], the IC50 was 1.13 ± 0.11 µM. Take `NC(=O)c1cccc(-c2ccc(Oc3ccc(C(F)(F)F)cc3CNCCO)cc2)n1` [compound 40, 6-(4-(2-(((2-hydroxyethyl)-amino)methyl)-4-(trifluoro-methyl)phenoxy)phenyl)picolin-amide]: the IC50 is 1.68 ± 0.177 µM.

As to `NC(=O)c1cccc(-c2ccc(Oc3ccc(F)cc3)c(COc3ccc(Cl)cc3I)c2)n1` [compound 94, 6-(3-((4-chloro-2-iodophenoxy)methyl)-4-(4-fluorophenoxy)phenyl) picolinamide], the half-inhibitory concentration (IC50) is more than 20 µM. `NC(=O)c1cccc(-c2ccc(Oc3ccc(C(F)(F)F)cc3C(C(N)=O)N3CCCC3)cc2)n1` (stereo not drawn) [compound 81, 6-(4-(2-(2-amino-2-oxo-1-(pyrrolidin-1-yl)ethyl)-4-(trifluoromethyl)phenoxy)phenyl) picolinamide]: the 50% inhibitory concentration (IC50) is 0.71 ± 0.0008 µM. Consider `NC(=O)c1cccc(-c2ccc(Oc3ccc(C(F)(F)F)cc3C(O)CN3CCNC(=O)C3)cc2)n1` (stereo not drawn) [compound 79, 6-(4-(2-(1-hydroxy-2-(3-oxopiperazin-1-yl)ethyl)-4-(trifluoromethyl)phenoxy)phenyl) picolinamide], for which the IC50 was more than 20 µM. Then `NC(=O)c1cccc(-c2ccc(Oc3ccc(C(F)(F)F)cc3CN3CC[C@H](O)C3)cc2)n1` [compound 36, (S)-6-(4-(2-((3-hydroxypyrrolidin-1-yl)methyl)-4-(trifluoromethyl)-phenoxy)phenyl)picolinamide], with 0.432 ± 0.131 µM. Take `Cn1cccc1-c1cc(C#N)ccc1Oc1ccc(-c2cccc(C(N)=O)n2)cc1` [compound 17, 6-(4-(4-cyano-2-(1-methyl-1H-pyrrol-2-yl)phenoxy)phenyl)-picolinamide]: the IC50 was 0.067 ± 0.019 µM. With `Cn1nccc1-c1cc(C#N)ccc1Oc1ccc(-c2cccc(C(N)=O)n2)cc1` [compound 22, 6-(4-(4-cyano-2-(1-methyl-1H-pyrazol-5-yl)phenoxy)phenyl) picolinamide], the IC50 was 0.285 ± 0.009 µM. On to `CNC(=O)c1cc(C(F)(F)F)ccc1Oc1ccc(-c2cccc(C(N)=O)n2)cc1` [compound 163, 6-(4-(2-(methylcarbamoyl)-4-(trifluoromethyl)phenoxy)phenyl) picolinamide], for which the IC50 was more than 20 µM.

With `NC(=O)c1cccc(-c2ccc(Oc3ccc(C(F)(F)F)cc3C(=O)C(=O)N3CCCC3)cc2)n1` [compound 157, 6-(4-(2-(2-oxo-2-(pyrrolidin-1-yl)acetyl)-4-(trifluoromethyl)-phenoxy)phenyl)picolinamide], the IC50 is 2.71 ± 0.235 µM. For `OC[C@@H](O)c1ccnc(-c2ccc(Oc3ccc(C(F)(F)F)cc3CN3CCCC3)cc2)n1` [compound 116, (S)-1-(2-(4-(2-(pyrrolidin-1-ylmethyl)-4-(trifluoromethyl)phenoxy)phenyl)pyrimidin-4-yl)ethane-1,2-diol], the IC50 was found to be 0.636 ± 0.065 µM. On to `CN(Cc1cc(-c2cccc(C(N)=O)n2)ccc1Oc1ccc(F)cc1)c1ccc(C(=O)O)cc1` [compound 93, 4-((5-(6-carbamoylpyridin-2-yl)-2-(4-fluorophenoxy)benzyl)-(methyl)amino)benzoic acid], for which the IC50 was more than 20 µM. Take `CCN(CC)S(=O)(=O)c1cc(C(F)(F)F)ccc1Oc1ccc(-c2cccc(C(N)=O)n2)cc1` [compound 109, 6-(4-(2-(N,N-diethylsulfamoyl)-4-(trifluoromethyl)phenoxy)phenyl)picolinamide]: the IC50 stood at 1.3 ± 0.056 µM. For `N#Cc1ccc(Oc2ccc(-c3cccc(C(N)=O)n3)cc2)cc1-c1cccnc1` [compound 27, 6-(4-(4-cyano-3-(pyridin-3-yl)phenoxy)phenyl)picolinamide], the concentration for half-maximal inhibition (IC50) came to 0.549 ± 0.085 µM.
